Measurements reported in ChEMBL document CHEMBL1201862, “PubChem BioAssay data set” (2004).
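A five-concentration, 48-hour dose response in 96-well plates underlies each endpoint, interpolated linearly between surrounding concentrations. GI50 marks 50% less growth.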 Activity calls are given as the source filed them. Cut-off read from the data, not from the text of the source: active = GI50 up to about 1.1 µM and inactive = higher.

Experiments:
Assay in all cases: NCI tumour cell line growth inhibition, 48 h
[1] = tested on: SW-620
[2] = tested on: MCF7
[3] = tested on: NCI/ADR-RES
[4] = tested on: SK-MEL-28
[5] = tested on: NCI-H460
[6] = tested on: SF-268
[7] = tested on: HOP-92
[8] = tested on: UACC-257
[9] = tested on: UACC-62
[10] = tested on: PC-3
[11] = tested on: SN12C
[12] = tested on: U-251
[13] = tested on: SR
[14] = tested on: Malme-3M
[15] = tested on: SNB-75
[16] = tested on: HCT-15
[17] = tested on: MDA-N
[18] = tested on: NCI-H226
[19] = tested on: BT-549
[20] = tested on: RXF 393
[21] = tested on: M14
[22] = tested on: SK-OV-3
[23] = tested on: K562
[24] = tested on: SF-539
[25] = tested on: EKVX
[26] = tested on: SF-295
[27] = tested on: CCRF-CEM
[28] = tested on: COLO 205
[29] = tested on: OVCAR-4
[30] = tested on: KM12
[31] = tested on: ACHN
[32] = tested on: SNB-19
[33] = tested on: A549
[34] = tested on: A498
[35] = tested on: OVCAR-3
[36] = tested on: MDA-MB-435
[37] = tested on: LOX IMVI
[38] = tested on: T47D
[39] = tested on: SK-MEL-5
[40] = tested on: HCC 2998
[41] = tested on: NCI-H522
[42] = tested on: 786-0
[43] = tested on: OVCAR-5
[44] = tested on: CAKI-1
[45] = tested on: SK-MEL-2
[46] = tested on: HL-60
[47] = tested on: TK-10
[48] = tested on: NCI-H23
[49] = tested on: HT-29
[50] = tested on: Hs-578T
[51] = tested on: HCT-116
[52] = tested on: MOLT-4
[53] = tested on: MDA-MB-231
[54] = tested on: OVCAR-8
[55] = tested on: DU-145
[56] = tested on: HOP-62
[57] = tested on: UO-31
[58] = tested on: RPMI-8226
[59] = tested on: IGROV-1

In the case of c1cc(-c2ccc(-c3ccc(C4=NCCCN4)cc3)o2)ccc1C1=NCCCN1, the GI50 [1] is reported as 82.2 µM (inactive), the GI50 [2] is reported as 88.7 µM (inactive) and the GI50 [3] is reported as 76.7 µM (inactive). For the same compound, the GI50 [4] was 25.1 µM (inactive), the GI50 [5] was 14.6 µM (inactive) and the GI50 [6] was > 100 µM (inactive). The GI50 [7] was 32 µM (inactive), the GI50 [8] was 38.8 µM (inactive) and the GI50 [9] was 19 µM (inactive). For the same compound, the GI50 [10] was 79.1 µM (inactive), the GI50 [11] was 4.18 µM (inactive) and the GI50 [12] was 33.3 µM (inactive). For the same compound, the GI50 [13] was > 100 µM (inactive), the GI50 [14] was 49.4 µM (inactive) and the GI50 [15] was 43 µM (inactive). For the same compound, the GI50 [16] was 90.8 µM, the GI50 [17] was 32.6 µM (inactive) and the GI50 [18] was 54 µM (inactive). The GI50 [19] was 35.4 µM (inactive), the GI50 [20] was > 100 µM (inactive) and the GI50 [21] was 53.5 µM (inactive). The GI50 [22] was > 100 µM (inactive), the GI50 [23] was 40.6 µM (inactive) and the GI50 [24] was 87.5 µM (inactive). The GI50 [25] was 40.2 µM (inactive), the GI50 [26] was 24.2 µM (inactive) and the GI50 [27] was > 100 µM (inactive). The GI50 [28] was 68.9 µM (inactive), the GI50 [29] was > 100 µM (inactive) and the GI50 [30] was 43.7 µM (inactive). The GI50 [31] was > 100 µM (inactive), the GI50 [32] was 52.6 µM (inactive) and the GI50 [33] was 8.2 µM (inactive). For the same compound, the GI50 [34] was 2.24 µM (inactive), the GI50 [35] was > 100 µM (inactive) and the GI50 [36] was 33.5 µM (inactive). For the same compound, the GI50 [37] was 37.4 µM (inactive), the GI50 [38] was 59.7 µM (inactive) and the GI50 [39] was 22.8 µM (inactive). The GI50 [40] was 92.9 µM (inactive), the GI50 [41] was 81.3 µM (inactive) and the GI50 [42] was 61.5 µM (inactive). The GI50 [43] was > 100 µM (inactive), the GI50 [44] was 74.1 µM (inactive) and the GI50 [45] was > 100 µM (inactive). For the same compound, the GI50 [46] was > 100 µM (inactive), the GI50 [47] was 50.2 µM (inactive) and the GI50 [48] was 46 µM (inactive). The GI50 [49] was 76.4 µM (inactive), the GI50 [50] was 98.6 µM (inactive) and the GI50 [51] was 39.6 µM (inactive). The GI50 [52] was > 100 µM (inactive), the GI50 [53] was > 100 µM (inactive) and the GI50 [54] was 59.3 µM (inactive). The GI50 [55] was 89.3 µM (inactive), the GI50 [56] was 47.8 µM (inactive) and the GI50 [57] was > 100 µM (inactive).
For C=C(C)C(CC=C(C)C)CC12CC(CC=C(C)C)C(C)(C)C(CC=C(C)C)(C(=O)C(Cc3ccc(O)c(O)c3)=C1O)C2=O (centres undefined), the GI50 [1] was > 100 µM (inactive), the GI50 [58] was > 100 µM (inactive) and the GI50 [2] was > 100 µM (inactive). The GI50 [3] was > 100 µM (inactive), the GI50 [4] was > 100 µM (inactive) and the GI50 [5] was > 100 µM (inactive). The GI50 [6] was > 100 µM (inactive), the GI50 [7] was > 100 µM (inactive) and the GI50 [8] was > 100 µM (inactive). The GI50 [9] was 85.3 µM (inactive), the GI50 [10] was > 100 µM (inactive) and the GI50 [12] was > 100 µM (inactive). For the same compound, the GI50 [13] was > 100 µM (inactive), the GI50 [14] was 57.8 µM (inactive) and the GI50 [15] was > 100 µM (inactive). The GI50 [16] was > 100 µM, the GI50 [17] was > 100 µM (inactive) and the GI50 [18] was > 100 µM (inactive). The GI50 [19] was > 100 µM (inactive), the GI50 [20] was > 100 µM (inactive) and the GI50 [21] was > 100 µM (inactive). The GI50 [22] was > 100 µM (inactive), the GI50 [23] was 99.3 µM (inactive) and the GI50 [24] was > 100 µM (inactive). For the same compound, the GI50 [25] was > 100 µM (inactive), the GI50 [26] was > 100 µM (inactive) and the GI50 [27] was 59.6 µM (inactive). The GI50 [28] was > 100 µM (inactive), the GI50 [29] was > 100 µM (inactive) and the GI50 [30] was > 100 µM (inactive). The GI50 [31] was > 100 µM (inactive), the GI50 [32] was > 100 µM (inactive) and the GI50 [33] was > 100 µM (inactive). The GI50 [34] was 74 µM (inactive), the GI50 [35] was > 100 µM (inactive) and the GI50 [36] was > 100 µM (inactive). The GI50 [37] was > 100 µM (inactive), the GI50 [38] was > 100 µM (inactive) and the GI50 [39] was > 100 µM (inactive). The GI50 [40] was > 100 µM (inactive), the GI50 [41] was > 100 µM (inactive) and the GI50 [42] was > 100 µM (inactive). For the same compound, the GI50 [43] was > 100 µM (inactive), the GI50 [44] was > 100 µM (inactive) and the GI50 [46] was > 100 µM (inactive). For the same compound, the GI50 [47] was > 100 µM (inactive), the GI50 [59] was > 100 µM (inactive) and the GI50 [48] was > 100 µM (inactive). The GI50 [49] was > 100 µM (inactive), the GI50 [50] was > 100 µM (inactive) and the GI50 [51] was > 100 µM (inactive). The GI50 [52] was 50.6 µM (inactive), the GI50 [53] was > 100 µM (inactive) and the GI50 [54] was > 100 µM (inactive). The GI50 [55] was > 100 µM (inactive), the GI50 [56] was > 100 µM (inactive) and the GI50 [57] was > 100 µM (inactive).
With Cc1ccccc1/N=N/c1ccc(N/N=C2/CCCNC2=O)c(C)c1 the GI50 [1] was > 100 µM (inactive), the GI50 [58] was > 100 µM (inactive) and the GI50 [2] was 64.1 µM (inactive). For the same compound, the GI50 [3] was > 100 µM (inactive), the GI50 [4] was > 100 µM (inactive) and the GI50 [5] was > 100 µM (inactive). The GI50 [6] was > 100 µM (inactive), the GI50 [7] was > 100 µM (inactive) and the GI50 [8] was > 100 µM (inactive). The GI50 [9] was > 100 µM (inactive), the GI50 [10] was > 100 µM (inactive) and the GI50 [11] was > 100 µM (inactive). The GI50 [12] was > 100 µM (inactive), the GI50 [13] was 36.1 µM (inactive) and the GI50 [14] was > 100 µM (inactive). The GI50 [16] was > 100 µM, the GI50 [17] was > 100 µM (inactive) and the GI50 [18] was > 100 µM (inactive). For the same compound, the GI50 [19] was > 100 µM (inactive), the GI50 [20] was > 100 µM (inactive) and the GI50 [21] was > 100 µM (inactive). For the same compound, the GI50 [22] was > 100 µM (inactive), the GI50 [23] was > 100 µM (inactive) and the GI50 [25] was 88.5 µM (inactive). For the same compound, the GI50 [26] was > 100 µM (inactive), the GI50 [27] was 9.46 µM (inactive) and the GI50 [28] was > 100 µM (inactive). The GI50 [29] was 66.8 µM (inactive), the GI50 [30] was > 100 µM (inactive) and the GI50 [31] was > 100 µM (inactive). For the same compound, the GI50 [32] was > 100 µM (inactive), the GI50 [33] was 68.1 µM (inactive) and the GI50 [34] was > 100 µM (inactive). For the same compound, the GI50 [36] was > 100 µM (inactive), the GI50 [37] was > 100 µM (inactive) and the GI50 [38] was 33 µM (inactive). The GI50 [39] was 45.2 µM (inactive), the GI50 [40] was > 100 µM (inactive) and the GI50 [41] was 31.2 µM (inactive). The GI50 [42] was > 100 µM (inactive), the GI50 [43] was > 100 µM (inactive) and the GI50 [44] was > 100 µM (inactive). The GI50 [45] was > 100 µM (inactive), the GI50 [46] was 8.55 µM (inactive) and the GI50 [47] was > 100 µM (inactive). The GI50 [59] was > 100 µM (inactive), the GI50 [48] was > 100 µM (inactive) and the GI50 [49] was > 100 µM (inactive). The GI50 [50] was > 100 µM (inactive), the GI50 [51] was > 100 µM (inactive) and the GI50 [52] was 34.6 µM (inactive). For the same compound, the GI50 [53] was > 100 µM (inactive), the GI50 [55] was > 100 µM (inactive) and the GI50 [56] was > 100 µM (inactive). For the same compound, the GI50 [57] was 39.5 µM (inactive).
